Experimental data taken from US9994824B2, “Method for promoting hair growth using composition comprising PDGF-D treated adipose-derived stem cells” (INDUSTRY-ACADEMIC COOPERATION FOUNDATION, YONSEI UNIVERSITY, priority 2015, dated 2018).

Columns and labels:
ROS generation in ASCs = assay: intracellular ROS generation using DCF-DA; type: cell-based, human; details: PDGF-D-treated ASCs plus inhibitor
Description: ROS generation in cells were measured by a method using DCF-DA (Molecular probe, USA) (Kim et al., Stem Cells Dev 21:2212-2221, 2012; Kim et al., Stem Cells Dev 20:1753-1761, 2011), and mitochondrial ROS generation was measured using Mito-Sox (Molecular probe, USA). ASCs were seeded on 60-mm dishes, treated with PDGF-D (10 ng/ml) and 5 μM Mito-Sox and incubated in a dark place for 2 hours, and then flow cytometry was performed.

BCL2A1 = BCL2A1 mRNA expression (PCR array, qPCR); type: cell-based, human; details: PDGF-D-treated ASCs plus inhibitor
Description: (§1) In this example, PDGF-D target genes were examined using a human signaling pathwayfinder RT^2 profiler PCR array (signaling pathway: PAHS-041ZD).
(§2) 2.5×10^5 of ASCs were seeded on 60-mm dishes, cultured in a 0.2% FBS-containing α-MEM medium, and treated with PDGF-D for 4-24 hours. Afterward, total RNA was extracted using an RNA extraction kit (RNeasy, Qiagen), cDNA was synthesized from 500 ng of total RNA by a cDNA synthesis kit (A3500, Promega) using 1,000 U reverse transcriptase and 50 ng/μl oligo(dT) primers. Gene expression was detected by a PCR array kit (Qiagen) according to the manufacturer's instructions, and qPCR was performed on a step one plus real-time PCR system (Applied Biosystems, Invitrogen) using a SYBR Green PCR master mix (Takara Bio, Japan).

SERPINE1 = SERPINE1 mRNA expression (PCR array, qPCR); type: cell-based, human; details: PDGF-D-treated ASCs plus inhibitor
Description: as §1, §2

ASCs [1] = assay: cell proliferation assay (CCK-8 cell numbers); type: cell-based, human; details: for proliferation of ASCs increased by PDGF-D, effect of inhibitor: inhibitor treatment of PDGF-D-treated ASCs
Description: (§3) Human ASCs were obtained from a subcutaneous fat by liposuction according to a known method (Kim et al. J Dermatol Sci 53:96-102, 2009). ASCs were cultured in an α-MEM medium (Hyclone, Thermo Scientific) with 10% FBS (GIBCO, Invitrogen) and 1% penicillin/streptomycin (GIBCO) at 37° C. in 5% CO2, and cells at 7-9 passages were used. Positive expression of CD44, CD73, CD90, CD105, HLA-1 and PODXL and negative expression of CD34 and CD45 were examined by flow cytometry (Kim et al. Cell Death Dis 4:e588, 2013; Kim et al., Cell Biol Int 38:32-40, 2014), and multipotent differentiation potential for the cells to differentiate into adipocytes, osteocytes and cartilage cells was examined (Song et al. Stem Cells Dev 17:451-461, 2008).
For cell proliferation assay, 7×10^3 of ASCs were seeded on 48-well plates, 24 hours later, a medium was transferred with a 0.2% FBS-containing α-MEM medium, and the following day, cells were treated with PDGF isoforms (10 ng/ml) for 48 hours. Afterward, the medium was removed, the cells were treated with a 10% CCK-8 solution for 2 hours using a CCK-8 assay kit (Dojindo, Japan), and the absorbance was measured at 450 nm, to examine cell numbers.

ASCs [2] = assay: cell migration assay (trans-well); type: cell-based, human; details: for migration of ASCs increased by PDGF-D, effect of inhibitor: inhibitor treatment of PDGF-D-treated ASCs
Description: as §3
Also, for cell migration assay, 2×10^4/well of ASCs were seeded on the upper portion of a trans-well membrane plate (Corning, USA). After 2 hours, PDGF isoforms (10 ng/ml) and an α-MEM medium with 0.2% FBS were introduced to the lower portion of the trans-well membrane plate to culture the PDGF isoforms for 16 to 20 hours. Afterward, cells migrated to the trans-well membrane were fixed with cold ethanol for 20 minutes, and stained with 10% crystal-violet (Sigma, USA) at room temperature for 30 minutes.

mitochondria of ASCs = assay: mitochondrial fission (MitoTracker Red, confocal microscope); type: cell-based, human; details: PDGF-D-treated ASCs plus inhibitor
Description: ASCs were seeded on a round cover glass and treated with PDGF-D (10 ng/ml) for 24 hours. For mitochondrial staining, 500 nM MitoTracker Red (Molecular Probe, USA) was added to an α-MEM medium, and cells were incubated for 30 minutes, and then the morphology of mitochondria and MitoTracker Red fluorescence were examined using a confocal microscope (Carl Zeiss). In addition, for nuclear staining, cells were fixed with 4% paraformaldehyde for 15 minutes, permeabilized with 0.5% PBS-T for 5 minutes, and stained with DAPI (Sigma, USA) at room temperature for 10 minutes.

[3] = system: growth factors VEGFA, FGF1, FGF5, BMP8B, LIF, INHBA, IL11 and HBEGF; assay: growth factor expression (RT2 profiler PCR array of human growth factor, qPCR); type: cell-based
Description: Then, the paracrine effect of PDGF families was examined using an RT^2 profiler PCR array of a human growth factor (growth factor pathway: PAHS-041ZA).
The growth factor expression was measured by an RT^2 profiler PCR array (FIG. 9A).

Molecule	DCF-DA fluorescence, effect of inhibitor/scavenger (ROS generation in ASCs)	BCL2A1 expression, effect of inhibitor (BCL2A1)	SERPINE1 expression, effect of inhibitor (SERPINE1)	proliferation of ASCs increased by PDGF-D, effect of inhibitor (ASCs [1])	migration of ASCs increased by PDGF-D, effect of inhibitor (ASCs [2])	further results
CC1(C)CC(C(=O)OCCCCCCCCCC[P+](c2ccccc2)(c2ccccc2)c2ccccc2)C(C)(C)N1O (stereo not drawn) [Mito-CP]	considerably decreased	no influence	considerably decreased	considerably decreased	considerably decreased	–
COCCOc1ccc2c(c1)ncn2-c1ccc2cccc(N3CCC(N)CC3)c2n1 [cp673451]	considerably decreased	decreased	decreased	–	–	–
S=C(S)N1CCCC1 [PDTC]	–	decreased	–	–	–	–
COc1cc(-n2c(=S)[nH]c3ccccc3c2=O)c(Cl)cc1Cl [Mdivi-1]	–	–	–	considerably decreased	considerably decreased	mitochondrial fission induced by PDGF-D treatment, effect of inhibitor (mitochondria of ASCs): decreased
N#CC(=C(/N)Sc1ccccc1N)/C(C#N)=C(\N)Sc1ccccc1N [U0126]	–	–	–	not influenced	not influenced	expression of a growth factor induced by PDGF-D, effect of inhibitor (PCR array) ([3]; 10 μM inhibitor, RT2 profiler PCR array): inhibited; expression of the growth factor induced by PDGF-D, effect of inhibitor (qPCR) ([3]; qPCR): inhibited
PDGF-B: PDGF isoform growth factor protein, purchased from Sigma (protein, UniProt P01127 82-190, looked up) Platelet-derived growth …: SLGSLTIAEPAMIAECKTRTEVFEISRRLIDRTNANFLVWPPCVEVQRCSGCCNNRNVQCRPTQVQLRPVQVRKIEIVRKKPIFKKATVTLEDHLACKCETVAAARPVT	–	–	–	–	–	cell proliferation (cell numbers) (ASCs [1]; PDGF isoforms 10 ng/ml, 48 hours, 0.2% FBS α-MEM): considerably enhanced twice or more; cell migration (ASCs [2]; PDGF isoforms 10 ng/ml, 16 to 20 hours, 0.2% FBS α-MEM): considerably enhanced twice or more
